Assay results as given in US12115161B2, “Prophylactic and/or therapeutic agent for inflammatory diseases which contains pyrrolopyrimidine compound as active ingredient” (KEIO UNIVERSITY, priority 2018, dated 2024).

Assays:
NZB/WF1 mice [1] = experiment: Anti-dsDNA antibody titer in blood of NZB/WF1 mice (Example 7); assay type: in vivo
Procedure: NZB/WF1 mice (purchased from Japan SLC, Inc.) were used as disease model (may also be referred to as systemic lupus erythematosus (SLE) model) mice producing anti-dsDNA antibodies with age and spontaneously developing glomerulonephritis. Except for the following exceptions, present Example was performed by the same materials and method as Example 6 above.
Experiments were performed as follows: • Group 1: administered a physiological saline solution only (saline); • Group 2: administered 0.2 mg/kg of Compound A; • Group 3: administered 1 mg/kg of Compound A.
NZB/WF1 mice (female) of 20 weeks old were classified into the above three groups (five individuals per group) and predetermined administration was initiated (0 w) on the individuals in each group.
The administration was performed five times a week for 20 weeks by intravenous injection.

[2] = system: peripheral blood monocytes and B cells from Sjögren syndrome patients; experiment: IgG production in coculture of BAFF-stimulated peripheral blood monocytes and B cells (Example 4); assay type: cell-based, human
Procedure: Monocytes were isolated from Sjögren syndrome patient peripheral blood using CD14 microbeads, and B cells were isolated from the peripheral blood using CD19 microbeads. Using Transwell® culture plates, 2×10^5 monocytes per well were seeded in the upper plate and 1×10^5 B cells in the lower plate to be cultured in the presence of 2 μg/mL recombinant human BAFF (same as Example 2) and Compound A (1 μM and 10 μM) using a 10% FBS/RPMI 1640 culture medium in a 5% CO2 environment at 37° C. for four days (coculture of the peripheral blood monocytes and the B cells via a membrane). Four days later, the supernatant was removed and the culture supernatant was collected to determine the IgG content in the culture supernatant by ELISA. As controls, experiments in the case of not adding Compound A and the case of adding neither Compound A nor BAFF were also performed. Moreover, for comparison with the effects of Compound A, experiments using BIK-13 instead of Compound A were also performed.

MRL/lpr mice = experiment: Tissue lesion (lymphocytic infiltration, HE staining) in MRL/lpr mice (Example 9); assay type: in vivo; conditions: 0.04, 0.2, 1 mg/kg for 16 weeks
Procedure: Present Example was performed simultaneously with Example 6 using MRL/lpr mice. Except for the following exceptions, present Example was performed by the same materials and method as Example 6 above.
After administration in the 16th week, 25-week-old mice were dissected and tissues (lacrimal glands, submandibular glands, and kidneys) were removed. After the removed tissues were rapidly frozen and embedded using O.C.T. compound (Sakura Finetek Japan Co., Ltd.), the frozen tissues were thin sectioned with a cryostat (LEICA CM 1920) and applied on glass slides. After the sections on the glass slides were dried, the tissues were stained by hematoxylin-eosin staining to be observed with a microscope. The hematoxylin-eosin staining was performed in the following procedure: • 1) fixation and washing with an ethanol-formalin-acetic acid fixative; • 2) adding New Hematoxylin solution Type G (Muto Pure Chemicals Co., Ltd.), followed by washing; • 3) adding New Eosin solution Type A (Muto Pure Chemicals Co., Ltd.); • 4) adding 80% ethanol; • 5) adding xylene; and • 6) mounted with Marinol (Muto Pure Chemicals Co., Ltd.) for observation.

[3] = system: human peripheral blood monocytes; experiment: IL-6 production inhibitory effect of BAFF from human peripheral blood monocytes (Example 3); assay type: cell-based
Procedure: Monocytes were isolated from normal healthy human peripheral blood using CD14-microbeads. In the presence of 2 μg/mL recombinant human BAFF (same as Example 2) and Compound A (2 μM and 10 μM) (entire culture scale of 24-well culture plates at 2 mL/well), 5×10^5 of the isolated monocytes were cultured using a 10% FBS/RPMI 1640 culture medium in a 5% CO2 environment at 37° C. for four days. Four days later, the supernatant was removed to determine the IL-6 content in the culture supernatant by IL-6 specific ELISA. For comparison, experiments using BIK-13 instead of Compound A were also performed.

NZB/WF1 mice [4] = experiment: Urine protein in NZB/WF1 mice (Example 8); assay type: in vivo
Procedure: Present Example was performed simultaneously with Example 7 using NZB/WF1 mice. Except for the following exceptions, present Example was performed by the same materials and method as Example 7 above.
The urine was collected over time (0 w, 4 w, 7 w, 12 w, 16 w, and 18 w) to evaluate the protein content […] in the urine using urine protein test strips. It is known that SLE patients are prone to develop lupus nephritis and a higher concentration of protein is contained in the urine of incident patients than the urine of normal healthy individuals.
The level of the protein content in the mouse urine was numerically expressed using Albustix (Ames urine protein test strips, produced by Siemens Healthcare K.K.) as urine protein test strips based on the following criteria. • negative: 0 • ±: 0.5 • +: 1 • 2+: 2 • 3+: 3

For `Cc1c(C)n(Cc2ccccc2)c2ncnc(OC3CCN(CC(=O)NCC4CC4)CC3)c12` [Compound A, 2-[4-{(7-benzyl-5,6-dimethyl-7H-pyrrolo[2,3-d]pyrimidin-4-yl)oxy}piperidin-1-yl]-N(cyclopropylmethyl)acetamide], the “anti-dsDNA antibody titer inhibitory effect compared with saline” value (NZB/WF1 mice [1]; 1 mg/kg, 12th and 16th weeks) was “significant (respectively, p<0.05) anti-dsDNA antibody titer inhibitory effects”, the “anti-dsDNA antibody titers in the blood compared with saline” value (NZB/WF1 mice [1]; 0.2 and 1 mg/kg, intravenous injection five times a week, 12 w or later) was “tendency of decrease” and the “IgG antibody production inhibitory effect compared with the control (B+mono+BAFF)” value ([2]; 1 μM and 10 μM with 2 μg/mL human BAFF, 4 days) was “significant (p<0.01 or p<0.001) IgG antibody production inhibitory effects”. The “cancellation of the IgG antibody production enhancement by BAFF” value ([2]; 10 μM, compared with adding neither compound nor BAFF) was “completely cancelled and further the IgG antibody production was inhibited below the basal level”, the “inhibitory effect on IgG antibody production, times stronger than BIK-13” value ([2]; coculture system of Example 4) was “approximately 10 times” and the “lymphocytic infiltration areas in kidney tissues compared with saline” value (MRL/lpr mice) was “reduced”. For the same molecule, the “lymphocytic infiltration areas in lacrimal gland tissues compared with saline” value (MRL/lpr mice) was “clearly reduced”, the “lymphocytic infiltration areas in submandibular gland tissues compared with saline” value (MRL/lpr mice) was “reduced” and the “IL-6 production inhibitory effect compared with the control” value ([3]; 2 μM and 10 μM with 2 μg/mL human BAFF, 4 days) was “significant (p<0.001) IL-6 production inhibitory effects”. For the same molecule, the “relative amount of IL-6 production” value ([3]; 2 μM, control = 100%) was 66.4±0.283%, the “IL-6 production inhibitory effect, times stronger than BIK-13” value ([3]; monocytes of normal healthy individuals) was “at least 5 times” and the “protein content in the urine compared with saline” value (NZB/WF1 mice [4]; 0.2 and 1 mg/kg, 12 w or later, urine protein test strips) was “tendency of decrease”. For the same molecule, the “inhibitory effect on the protein content in the urine compared with saline” value (NZB/WF1 mice [4]; 12th week (1 mg/kg) and 18th week (0.2 mg/kg and 1 mg/kg)) was “significant (respectively, p<0.05) inhibitory effects”.
